This passage reports pKa and Potency results from ChEMBL document CHEMBL1122585, “Synthesis of a novel class of heteroaromatic amino acids and their use in the preparation of analogues of luteinizing hormone-releasing hormone” (J Med Chem, 1984).

Data set [1] in a line: Acid dissociation constant was determined. The data set is classed as ADME.
The species entered for a further data set is Rattus norvegicus. Put plainly: Antifertility effect in adult female rats by estrus suppression assay. The data set is classed as functional.

In turn, `NC(Cc1nc2ccccc2[nH]1)C(=O)O` (stereo not drawn) returned a pKa in data set [1] of 4.7. On the same count and under the same terms, then `NC(Cc1nc2c([nH]1)CCCC2)C(=O)O` (stereo not drawn), with 7.5. In the data set filed under Rattus norvegicus, `CC(C)C[C@H](NC(=O)[C@@H](Cc1nc2ccccc2o1)NC(=O)[C@H](Cc1ccc(O)cc1)NC(=O)[C@H](CO)NC(=O)[C@H](Cc1c[nH]c2ccccc12)NC(=O)[C@H](Cc1c[nH]cn1)NC(=O)[C@@H]1CCC(=O)N1)C(=O)N[C@@H](CCCN=C(N)N)C(=O)N1CCC[C@H]1C(=O)NCC(N)=O` gave a Potency of 1.2.

In the data set listed under Rattus norvegicus, `CC(C)C[C@H](NC(=O)[C@@H](Cc1nc2cc(Cl)c(Cl)cc2[nH]1)NC(=O)[C@H](Cc1ccc(O)cc1)NC(=O)[C@H](CO)NC(=O)[C@H](Cc1c[nH]c2ccccc12)NC(=O)[C@H](Cc1c[nH]cn1)NC(=O)[C@@H]1CCC(=O)N1)C(=O)N[C@@H](CCCN=C(N)N)C(=O)N1CCC[C@H]1C(=O)NCC(N)=O` showed a Potency of 0.9. Molecule `NC(Cc1nc2cc(Cl)c(Cl)cc2[nH]1)C(=O)O` (stereo not drawn) registered a pKa in data set [1] of 3.4. As to `Cc1cc2nc(CC(N)C(=O)O)[nH]c2cc1C` (stereo not drawn), the pKa in data set [1] stood at 5.4.

Turning to `CCNC(=O)[C@@H]1CCCN1C(=O)[C@H](CCCN=C(N)N)NC(=O)[C@H](CC(C)C)NC(=O)[C@@H](Cc1nc2c(ccc3ccccc32)[nH]1)NC(=O)[C@H](Cc1ccc(O)cc1)NC(=O)[C@H](CO)NC(=O)[C@H](Cc1c[nH]c2ccccc12)NC(=O)[C@H](Cc1c[nH]cn1)NC(=O)[C@@H]1CCC(=O)N1`, in the data set filed under Rattus norvegicus, the Potency is 0.8. In the data set filed under Rattus norvegicus, `CCNC(=O)[C@@H]1CCCN1C(=O)[C@H](CCCN=C(N)N)NC(=O)[C@H](CC(C)C)NC(=O)[C@@H](Cc1nc2ccccc2[nH]1)NC(=O)[C@H](Cc1ccc(O)cc1)NC(=O)[C@H](CO)NC(=O)[C@H](Cc1c[nH]c2ccccc12)NC(=O)[C@H](Cc1c[nH]cn1)NC(=O)[C@@H]1CCC(=O)N1` had a Potency of 1. On to `CC(C)C[C@H](NC(=O)[C@@H](Cc1nc2ccccc2s1)NC(=O)[C@H](Cc1ccc(O)cc1)NC(=O)[C@H](CO)NC(=O)[C@H](Cc1c[nH]c2ccccc12)NC(=O)[C@H](Cc1c[nH]cn1)NC(=O)[C@@H]1CCC(=O)N1)C(=O)N[C@@H](CCCN=C(N)N)C(=O)N1CCC[C@H]1C(=O)NCC(N)=O`, for which the Potency in the data set filed under Rattus norvegicus was 1.

For `CCNC(=O)[C@@H]1CCCN1C(=O)[C@H](CCCN=C(N)N)NC(=O)[C@H](CC(C)C)NC(=O)[C@@H](Cc1nc2c([nH]1)CCCC2)NC(=O)[C@H](Cc1ccc(O)cc1)NC(=O)[C@H](CO)NC(=O)[C@H](Cc1c[nH]c2ccccc12)NC(=O)[C@H](Cc1c[nH]cn1)NC(=O)[C@@H]1CCC(=O)N1`, in the data set listed under Rattus norvegicus, the Potency amounted to 1.4. The molecule `CC(C)C[C@H](NC(=O)[C@@H](Cc1nc2ccccc2[nH]1)NC(=O)[C@H](Cc1ccc(O)cc1)NC(=O)[C@H](CO)NC(=O)[C@H](Cc1c[nH]c2ccccc12)NC(=O)[C@H](Cc1c[nH]cn1)NC(=O)[C@@H]1CCC(=O)N1)C(=O)N[C@@H](CCCN=C(N)N)C(=O)N1CCC[C@H]1C(=O)NCC(N)=O` registered a Potency in the data set listed under Rattus norvegicus of 0.3. Same read-out and setting: then `Cc1cc2nc(C[C@@H](NC(=O)[C@H](Cc3ccc(O)cc3)NC(=O)[C@H](CO)NC(=O)[C@H](Cc3c[nH]c4ccccc34)NC(=O)[C@H](Cc3c[nH]cn3)NC(=O)[C@@H]3CCC(=O)N3)C(=O)N[C@@H](CC(C)C)C(=O)N[C@@H](CCCN=C(N)N)C(=O)N3CCC[C@H]3C(=O)NCC(N)=O)[nH]c2cc1C`, with 1.6. On the same count and under the same terms, then `CC(C)C[C@H](NC(=O)[C@@H](Cc1nc2c([nH]1)CCCC2)NC(=O)[C@H](Cc1ccc(O)cc1)NC(=O)[C@H](CO)NC(=O)[C@H](Cc1c[nH]c2ccccc12)NC(=O)[C@H](Cc1c[nH]cn1)NC(=O)[C@@H]1CCC(=O)N1)C(=O)N[C@@H](CCCN=C(N)N)C(=O)N1CCC[C@H]1C(=O)NCC(N)=O`, with 0.6.
